The test system of data set [1] is miR-22. As to the kind of experiment: miR-22 induction in HCT116 cells. It is filed as cell-based. The note with it: RA 10 μM, SAHA 5 μM, butyrate 5 mM, propionate 10 mM, valerate 10 mM.
Description: Mean±SD, *p<0.05; **p<0.01; ***p<0.0001 vs. DMSO control, #p<0.05 vs. single agent treatment.
Data set [2] has as its system miR-22. The note with it: published data, cells not given; cited from earlier work.
Data set [3] deals with colon tumors in xenograft models. The note with it: combination: RA 0.025 mg/g and butyrate 1.2 mg/g, intraperitoneal, 5 times/week, 2 weeks; cited from earlier work.
The test system of a further data set is HDAC1, HDAC4, and SIRT1. The note with it: liver cancer Huh7 and colon cancer HCT116 cells, published data; cited from earlier work.
For the next data set, the system named is RARβ. As to the kind of experiment: RARβ mRNA and protein levels in HCT116 cells. The format is cell-based. The settings on record: 48 hrs, RA 10 μM, butyrate 5 mM, SAHA 5 μM.
The subject of a further data set is Swiss mice. The settings on record: oral; cited from earlier work.

Consider 8 molecules from patent publication US20220241227A1, “COMPOSITIONS COMPRISING HDAC INHIBITORS AND RETINOIDS” (The Regents of The University of California, priority 2019, published 2022).

Like-named read-outs stand apart in the source and are kept apart here.

For the molecule `O=C(CCCCCCC(=O)Nc1ccccc1)NO` [SAHA, suberanilohydroxamic acid], the miR-22 induction result with miR-22 [1] is on record as “induced”; in the data set on miR-22 [2] it was “induces miR-22”. Take “miR-22: tumor suppressor microRNA, SEQ ID NO:1 (AAGCUGCCAGUUGAAGAACUGU; listed as RNA, chemistry not fully specified; listed as Homo sapiens)”: the “treatment of colon tumors in xenograft models” value in data set [3] is given as “effective in treating colon tumors”. Besides, the “HDAC1, HDAC4, and SIRT1 levels” value with HDAC1, HDAC4, and SIRT1 is “reduced”.

As to `CCCCC(=O)O` [valerate], the miR-22 induction entry with miR-22 [1] is reported as “induced”; in the data set on miR-22 [2], “induce miR-22”. For the molecule “EGF: promotes growth and does not has HDAC inhibitory effect (NSDSECPLSHDGYCLHDGVCMYIEALDKYACNCVVGYIGERCQYRDLKWWELR; Epidermal growth factor; UniProt P01133 971-1023, looked up)”, the “RARβ expression (mRNA and protein)” value in the data set with RARβ is recorded as “did not induce RARβ”. Regarding `CCC(=O)O` [propionate], the values for the miR-22 induction entry in the data set with miR-22 [1] and in the data set with miR-22 [2] were “induced” and “induce miR-22”, respectively.

As to `O=CO` [formate], in the data set on miR-22 [1], the miR-22 induction entry is listed as “unable to induce miR-22”. On to `CC(=O)O` [acetate], for which the miR-22 induction result in the data set with miR-22 [1] is reported as “unable to induce miR-22”. For the molecule `CC1=C(/C=C/C(C)=C/C=C/C(C)=C/C(=O)O)C(C)(C)CCC1` [RA, all-trans retinoic acid], the miR-22 induction result in the data set on miR-22 [1] is recorded as “induced”. In addition, the LD50 in the data set with Swiss mice is given as 1.1 mg/g.
